For one data set, the system named is L. major amastigotes. The conditions noted are these: read-out: L. major Amast EC50, previously reported data; cited from earlier work.
The subject of data set [1] is HepG2 cell line. The settings on record: compound marked as previously reported data; cited from earlier work.
Another data set in a line: Metabolic stability. The settings on record: in vitro ADME assays.
Data set [2] has as its system HepG2 cell line. Put plainly: HepG2 host cell toxicity. The format is cell-based, human.
The subject of data set [3] is T. brucei. The data set can be described thus: T. brucei cell growth inhibition. The format is cell-based, Trypanosoma brucei.
Data set [4] concerns T. brucei. The settings on record: cited from earlier work.
In data set [5] the test system is T. brucei. The settings on record: read-out: T. brucei EC50; previously reported data, same assay; cited from earlier work.
In a further data set the test system is T. cruzi. The settings on record: read-out: T. cruzi EC50; previously reported data, same assay; cited from earlier work.
In a further data set the test system is L. major promastigotes. The settings on record: read-out: L. major Promast EC50, previously reported data; cited from earlier work.
Data set [6] deals with P. falciparum (D6 strain). The conditions noted are these: read-out: P. falciparum D6 EC50, previously reported data; cited from earlier work.
For data set [7] the following is noted: cited from earlier work.
The conditions of data set [8]: cited from earlier work. The source holds these as a separate data set.

Where two headings read alike, the source gives them in different places.

The term EC50 denotes the midpoint of the concentration-response curve.

With `Fc1cccc(COc2ccc(Nc3ncnc4ccc(-c5ccccc5)cc34)cc2Cl)c1` [4b], the EC50 with L. major amastigotes is more than 15000 nM. For the same compound, in the data set on HepG2 cell line [1], the “HepG2 TC50 (concentration leading to 50% growth inhibition of host cells)” value is 4900 nM.

With `Fc1cccc(COc2ccc(Nc3ncnc4ccc(-c5ccc(CN6CCOCC6)cc5)cc34)cc2Cl)c1` [4j], the “HepG2 TC50 (concentration leading to 50% growth inhibition of host cells)” value in the data set with HepG2 cell line [1] is 12900 nM.

For `Fc1cccc(COc2ccc(Nc3ncnc4ccc(-c5ccc(N6CCOCC6)cc5)cc34)cc2Cl)c1` [4k], in the data set with L. major amastigotes, the EC50 was more than 15000 nM. Besides, the “HepG2 TC50 (concentration leading to 50% growth inhibition of host cells)” value with HepG2 cell line [1] was 9600 nM.

For `Cc1cc(-c2cc3ncnc(Nc4ccc(OCc5cccc(F)c5)c(Cl)c4)c3s2)cnc1N1CCOCC1` [11e], the metabolic stability entry in “Metabolic stability” is listed as “modest”.

Turning to `Fc1cccc(COc2ccc(Nc3ncnc4sc(-c5ccccc5)cc34)cc2Cl)c1` [18b], in the data set with HepG2 cell line [2], the “HepG2 TC50 (concentration leading to 50% growth inhibition of host cells)” value stood at 10000 nM.

For the compound `Fc1cccc(COc2ccc(Nc3ncnc4cc(C#C[C@@H]5CCCN5)sc34)cc2Cl)c1` [GW837016X], in the data set on T. brucei [3], the “potency against T. brucei (in words)” value was “potent”.

For `CS(=O)(=O)CCNCc1ccc(-c2ccc3ncnc(Nc4ccc(OCc5cccc(F)c5)c(Cl)c4)c3c2)o1` [compound 1, lapatinib, reference compound], the “cure of infected mice” value with T. brucei [4] (murine model of HAT) is given as 25%.

For the compound `Fc1cccc(COc2ccc(Nc3ncnc4ccc(-c5cccc(N6CCOCC6)c5)cc34)cc2Cl)c1` [compound 2], the metabolic stability entry in “Metabolic stability” is “modest”. Further, the EC50 was 42 ± 10 nM in the data set on T. brucei [5], 1800 ± 900 nM in the data set with T. cruzi, 2970 nM in the data set with L. major promastigotes and 230 nM in data set [6]. In addition, the “effect on parasitemia and life extension” value in the data set with T. brucei [4] (murine T. brucei bloodstream infection) is reported as “modest effect”. In addition, the “central nervous system exposure” value in data set [7] was “lack of central nervous system exposure”. Further, the oral bioavailability result in data set [7] (mice) is reported as “orally bioavailable”. The plasma protein binding in data set [8] is more than 99%.

(Values after PMC4324364 (MedChemComm, 2014).)
